Where two headings read alike, the source gives them in different places.
What was measured:
[1] = molecular target: human RORγt ligand binding domain (RORγt LBD) (Homo sapiens (Human), UniProt P51449); test: RORγt ThermoFluor® assay (thermal shift binding); details: read-out: ThermoFluor® Assay, Kd
How it was run: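 Binding was inferred from thermal stabilisation (ΔTm) of the E. coli-expressed RORγt LBD (0.065 mg/mL), monitored by 1,8-ANS (60 μM) emission at 500 nm during a 1 °C/min ramp. Buffer was Hepes 100 mM pH 7.0 with NaCl, GSH and Tween-20.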

full-length human RORγt = full-length human RORγt (Homo sapiens (Human), UniProt P51449); test: RORγt (full-length human) reporter assay, Conditions B or C; assay type: cell-based; details: for RORγt (FL) Reporter Assay B or C, % inhibition (value marked *): marked *: footnote not given; for inhibition at 3 µM: at 3 μM compound concentration
How it was run: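 Readout is dual luciferase: firefly (GAL4-driven) normalized to DMSO-only and saturating-reference controls, then to CMV-Renilla. Full-length human RORγt fused to GAL4-DBD was transiently expressed in HEK293T; compound exposure ran overnight (16-20 h) starting 4-6 h after transfection, final FBS 1.3%, DMSO 0.1%.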

[2] = Conditions B or C, read-out: RORγt (FL) Reporter Assay B or C, IC50
[3] = read-out: RORγt (FL) Reporter Assay B or C, % inhibition
[4] = read-out: RORγt (FL) Reporter Assay B or C, IC50

human RORγt ligand binding domain (RORγt LBD), sequence (P51449 other isoform, or with tags, fused parts or gaps): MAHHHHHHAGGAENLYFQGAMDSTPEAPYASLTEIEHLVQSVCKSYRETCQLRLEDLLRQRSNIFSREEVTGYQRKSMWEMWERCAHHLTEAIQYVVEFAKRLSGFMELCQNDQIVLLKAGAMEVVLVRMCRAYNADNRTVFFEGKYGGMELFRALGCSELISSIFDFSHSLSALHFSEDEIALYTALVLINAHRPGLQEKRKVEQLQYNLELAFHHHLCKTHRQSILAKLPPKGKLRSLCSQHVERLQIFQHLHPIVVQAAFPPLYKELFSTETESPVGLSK
full-length human RORγt, sequence (P51449 other isoform, or with tags, fused parts or gaps): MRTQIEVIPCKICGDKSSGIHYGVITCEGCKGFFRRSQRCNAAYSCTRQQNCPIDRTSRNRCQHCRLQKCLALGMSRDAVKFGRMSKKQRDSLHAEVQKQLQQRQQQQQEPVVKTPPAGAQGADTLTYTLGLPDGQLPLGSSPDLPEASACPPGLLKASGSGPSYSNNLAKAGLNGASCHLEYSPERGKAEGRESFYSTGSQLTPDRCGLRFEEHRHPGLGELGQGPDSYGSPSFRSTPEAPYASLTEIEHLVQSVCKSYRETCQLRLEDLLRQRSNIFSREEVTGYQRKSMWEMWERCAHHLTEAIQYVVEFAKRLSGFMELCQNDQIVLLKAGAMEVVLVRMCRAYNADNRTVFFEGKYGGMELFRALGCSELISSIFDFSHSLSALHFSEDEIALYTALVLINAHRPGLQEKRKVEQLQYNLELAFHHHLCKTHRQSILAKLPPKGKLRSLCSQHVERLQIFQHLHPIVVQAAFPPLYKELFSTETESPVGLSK

| SMILES | Kd [1] [nM] | RORγt (FL) Reporter Assay B or C, % inhibition (value marked *) (full-length human RORγt; Conditions B or C) | IC50 (full-length human RORγt; [2]) [µM] | inhibition at 3 µM (full-length human RORγt; [3]) [%] | IC50 (full-length human RORγt; [4]) [µM] | inhibition at 1 µM (full-length human RORγt; at 1 μM compound concentration, read-out: RORγt (FL) Reporter Assay B or C, % inhibition) [%] | RORγt (FL) Reporter Assay B or C, % inhibition (value marked *****) (full-length human RORγt; Conditions B or C, marked *****: footnote not shown) | IC50 (full-length human RORγt; RORγt (FL) Reporter Assay B or C, IC50 (μM), Conditions B or C) [µM] |
| --- | --- | --- | --- | --- | --- | --- | --- | --- |
| CC[C@H](Nc1cc(C(F)F)c(-c2sc(C(=O)N[C@@H]3C[C@@H]3O)nc2C(=O)N2CCC[C@@H]2C)cn1)C(F)(F)F (relative stereo) [Example 211, 5-(4-(Difluoromethyl)-6-(((S)-1,1,1-trifluorobutan-2-yl)amino)pyridin-3-yl)-N-((1R*,2S*)-2-hydroxycyclopropyl)-4-((S)-2-methylpyrrolidine-1-carbonyl)thiazole-2-carboxamide] | 8.2 | 104* % | 0.014 |  |  |  |  |  |
| C[C@H]1CCCN1C(=O)c1nc(C(=O)NC2CCC2O)sc1-c1cnc(NC(C)(C)C)cc1C(F)(F)F (stereo partly drawn) [Example 369, 5-(6-(tert-Butylamino)-4-(trifluoromethyl)pyridin-3-yl)-N-(trans-2-hydroxycyclobutyl)-4-((S)-2-methylpyrrolidine-1-carbonyl)thiazole-2-carboxamide] | 0.7 |  |  | 106 | 0.0066 |  |  |  |
| CC[C@H](Nc1cc(C(F)F)c(-c2sc(C(=O)N[C@H]3CCC[C@@H]3O)nc2C(=O)N2CCC[C@@H]2C)cn1)C(F)(F)F [Example 229, 5-(4-(Difluoromethyl)-6-(((1S)-1-(trifluoromethyl)propyl)amino)-3-pyridyl)-N-((1S,2S)-2-hydroxycyclopentyl)-4-((2S)-2-methylpyrrolidine-1-carbonyl)thiazole-2-carboxamide] | 0.97 | 83* % | 0.042 |  |  |  |  |  |
| C[C@H]1CCCN1C(=O)c1nc(C(=O)NC2CCCC2O)sc1-c1cnc(NC(C)(C)C)cc1C(F)(F)F (stereo partly drawn) [Example 347, 5-[6-(tert-Butylamino)-4-(trifluoromethyl)-3-pyridyl]-N-[cis-2-hydroxycyclopentyl]-4-[(2S)-2-methylpyrrolidine-1-carbonyl]thiazole-2-carboxamide] | 0.38 |  |  | 124 | 0.0038 |  |  |  |
| C[C@@H](Nc1cc(C(F)(F)F)c(-c2sc(C(=O)NCC(C)(C)O)nc2C(=O)N2CCC[C@@H]2C)cn1)C1CC1 [Example 48, 5-(6-(((R)-1-Cyclopropylethyl)amino)-4-(trifluoromethyl)pyridin-3-yl)-N-(2-hydroxy-2-methylpropyl)-4-((S)-2-methylpyrrolidine-1-carbonyl)thiazole-2-carboxamide] | 11 | 111* % | 0.023 |  |  |  |  |  |
| O=C(N[C@@H]1CC[C@H]1O)c1nc(C(=O)N2C3CCC2CC3)c(-c2cnc(N[C@@H](C3CC3)C(F)(F)F)cc2C(F)F)s1 (relative stereo) [Example 443, 4-((1s,4s)-7-Azabicyclo[2.2.1]heptane-7-carbonyl)-5-(6-(((S)-1-cyclopropyl-2,2,2-trifluoroethyl)amino)-4-(difluoromethyl)pyridin-3-yl)-N-((1R*,2R*)-2-hydroxycyclobutyl)thiazole-2-carboxamide] | 2.2 |  |  | 107 | 0.016 |  |  |  |
| C[C@H](Nc1cc(C(F)F)c(-c2sc(C(=O)N[C@H]3C[C@H](O)C3)nc2C(=O)N2CCC[C@@H]2C)cn1)C(F)(F)F [Example 188] | 47 | 85* % | 0.54 |  |  |  |  |  |
| CC[C@H](Nc1cc(C(F)F)c(-c2sc(C(=O)N[C@H]3CC[C@H](O)C3)nc2C(=O)N2CC(F)(F)C[C@@H]2C)cn1)C(F)(F)F [Example 416, 4-[(2S)-4,4-Difluoro-2-methyl-pyrrolidine-1-carbonyl]-5-[4-(difluoromethyl)-6-[[(1S)-1-(trifluoromethyl)propyl]amino]-3-pyridyl]-N-[(1S,3S)-3-hydroxycyclopentyl]thiazole-2-carboxamide] | 0.43 |  |  |  | 0.037 | 89 |  |  |
| CC[C@H](Nc1cc(C(F)F)c(-c2sc(C(=O)N[C@@H]3COC[C@H]3O)nc2C(=O)N2CCC[C@@H]2C)cn1)C(F)(F)F [Example 220, 5-(4-(Difluoromethyl)-6-(((1S)-1-(trifluoromethyl)propyl)amino)-3-pyridyl)-N-((3R,4S)-4-hydroxytetrahydrofuran-3-yl)-4-((2S)-2-methylpyrrolidine-1-carbonyl)thiazole-2-carboxamide] | 6.1 |  | 0.013 |  |  |  | 111***** % |  |
| CC1(Nc2cc(C(F)F)c(-c3sc(C(=O)N[C@H]4C[C@H](O)C4)nc3C(=O)N3C4CCC3CC4)cn2)CCC1 [Example 330, 4-((1s,4s)-7-Azabicyclo[2.2.1]heptane-7-carbonyl)-5-(4-(difluoromethyl)-6-((1-methylcyclobutyl)amino)pyridin-3-yl)-N-((1r,3R)-3-hydroxycyclobutyl)thiazole-2-carboxamide] | 4.2 |  |  | 93 | 0.016 |  |  |  |
| CC[C@H](Nc1cc(C(F)(F)F)c(-c2sc(C(=O)N[C@@H]3COC[C@H]3O)nc2C(=O)N2C3CCC2CC3)cn1)C(F)(F)F [Example 155] | 1.1 | 103* % |  |  |  |  |  | 0.0058 |
| CC(C)(C)CNc1cc(C(F)(F)F)c(-c2sc(C(=O)NCC(C)(C)O)nc2C(=O)N2C3CCC2CC3)cn1 [Example 84, 4-((1s,4s)-7-Azabicyclo[2.2.1]heptane-7-carbonyl)-N-(2-hydroxy-2-methylpropyl)-5-(6-(neopentylamino)-4-(trifluoromethyl)pyridin-3-yl)thiazole-2-carboxamide] | 1.2 | 136* % | 0.018 |  |  |  |  |  |
| C[C@H]1CCCN1C(=O)c1nc(C(=O)N[C@@H]2CC[C@H]2O)sc1-c1cnc(NC(C)(C)C)cc1C(F)F (relative stereo) [Example 403, 5-(6-(tert-Butylamino)-4-(difluoromethyl)pyridin-3-yl)-N-(1R*,2R*)-2-hydroxycyclobutyl)-4-((S)-2-methylpyrrolidine-1-carbonyl)thiazole-2-carboxamide] | 4.5 |  |  | 108 | 0.036 |  |  |  |
| CC[C@@H](CO)NC(=O)c1nc(C(=O)N2CCC[C@@H]2C)c(-c2cnc(N[C@@H](C)C(F)(F)F)cc2C(F)F)s1 [Example 407, 5-[4-(Difluoromethyl)-6-[[(1S)-2,2,2-trifluoro-1-methyl-ethyl]amino]-3-pyridyl]-N-[(1S)-1-(hydroxymethyl)propyl]-4-[(2S)-2-methylpyrrolidine-1-carbonyl]thiazole-2-carboxamide] | 15 |  |  | 100 | 0.12 |  |  |  |
| CC[C@H](Nc1cc(C(F)F)c(-c2sc(C(=O)NC3CCOCC3)nc2C(=O)N2CC(F)(F)C[C@@H]2C)cn1)C(F)(F)F [Example 422, 4-[(2S)-4,4-Difluoro-2-methyl-pyrrolidine-1-carbonyl]-5-[4-(difluoromethyl)-6-[[(1S)-1-(trifluoromethyl)propyl]amino]-3-pyridyl]-N-tetrahydropyran-4-yl-thiazole-2-carboxamide] | 0.62 |  |  | 101 | 0.023 |  |  |  |
| C[C@H]1CCCN1C(=O)c1nc(C(=O)NCC(C)(C)O)sc1-c1cnc(NC(C)(C)CC(F)(F)F)cc1C(F)F [Example 296] | 0.5 |  |  | 108 | 0.0071 |  |  |  |

Source: patent US10975068B2, “6-aminopyridin-3-yl thiazoles as modulators of RORγT” (Janssen Pharmaceutica NV, priority 2016, dated 2021)
